Data reported in article PMC4461516 (Bioorganic & medicinal chemistry, 2015).
pIC50: −log10 of the molar value. Where two headings read alike, the source gives them in different places.

Tests used:
[1] = tested on: subcutaneous Metrazol (scMet) seizure; settings: cited from earlier work
[2] = target: T1, Na+ currents in CAD cells (mostly Nav1.7) (Mus musculus, UniProt Q62205); settings: read-out: Slow inactivation IC50, at −50 mV; cited from earlier work
behavioral toxicity = settings: rat, po; cited from earlier work
[3] = Rotorod test for neurological impairment, mice ip; settings: mouse, in vivo
[4] = tested on: 6 Hz (32 mA) psychomotor seizure; test: 6 Hz; format: in vivo, mice; settings: Mus musculus, ip, read-out: 6 Hz ED50
[5] = tested on: maximal electroshock seizure; test: Maximal electroshock seizure; format: in vivo, mice; settings: Mus musculus, ip, read-out: MES ED50
[6] = tested on: 6 Hz (32 mA) psychomotor seizure; settings: mice, ip, time (h) in brackets; cited from earlier work
[7] = tested on: maximal electroshock seizure; settings: rat, po, cited from earlier work
[8] = tested on: voltage-gated sodium channels (Nav1.1, Nav1.2, Nav1.3, Nav1.6) in rat embryonic cortical neurons; test: Whole-cell patch-clamp of Na+ currents in rat embryonic cortical neurons; format: cell-based; settings: 10 μM, vs 0.1% DMSO control
CYP2C9 = CYP2C9 (Homo sapiens, UniProt P11712); test: CYP450 inhibition panel: CYP2C9; format: in vitro ADME; settings: 10 μM; data not shown
Sequence of CYP2C9 (P11712 whole entry): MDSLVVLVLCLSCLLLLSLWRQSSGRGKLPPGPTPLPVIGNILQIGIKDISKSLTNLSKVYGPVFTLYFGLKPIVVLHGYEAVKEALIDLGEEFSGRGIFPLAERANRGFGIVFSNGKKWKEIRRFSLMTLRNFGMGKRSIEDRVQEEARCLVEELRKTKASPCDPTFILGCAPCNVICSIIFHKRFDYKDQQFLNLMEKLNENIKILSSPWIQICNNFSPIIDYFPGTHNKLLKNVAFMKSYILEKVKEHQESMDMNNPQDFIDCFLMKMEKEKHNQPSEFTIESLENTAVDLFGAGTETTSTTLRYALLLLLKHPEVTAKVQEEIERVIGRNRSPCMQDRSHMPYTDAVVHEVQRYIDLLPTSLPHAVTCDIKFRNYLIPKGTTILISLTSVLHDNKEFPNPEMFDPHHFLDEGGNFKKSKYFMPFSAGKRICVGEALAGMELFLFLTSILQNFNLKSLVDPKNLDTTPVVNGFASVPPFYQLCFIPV

CYP1A2 = target: T2, CYP1A2 (Homo sapiens, UniProt P05177); test: CYP450 inhibition panel: CYP1A2; format: in vitro ADME; settings: 10 μM; data not shown
T2 sequence (P05177 1-516): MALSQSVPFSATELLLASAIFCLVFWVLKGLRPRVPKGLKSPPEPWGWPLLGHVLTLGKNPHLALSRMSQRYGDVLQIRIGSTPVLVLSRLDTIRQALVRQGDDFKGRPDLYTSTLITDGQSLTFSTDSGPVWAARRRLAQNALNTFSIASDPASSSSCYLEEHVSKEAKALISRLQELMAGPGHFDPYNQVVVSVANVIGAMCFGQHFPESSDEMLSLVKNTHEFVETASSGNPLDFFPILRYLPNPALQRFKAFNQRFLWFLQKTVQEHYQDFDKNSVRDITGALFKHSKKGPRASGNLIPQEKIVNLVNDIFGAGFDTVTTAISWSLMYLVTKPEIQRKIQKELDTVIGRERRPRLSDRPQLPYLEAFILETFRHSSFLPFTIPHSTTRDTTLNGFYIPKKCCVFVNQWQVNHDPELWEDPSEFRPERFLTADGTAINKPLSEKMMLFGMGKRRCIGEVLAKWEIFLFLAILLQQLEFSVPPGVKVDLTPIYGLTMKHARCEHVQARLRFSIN

[9] = target: T1, Na+ currents in CAD cells (mostly Nav1.7); test: Whole-cell patch-clamp of Na+ currents in CAD cells; format: cell-based; settings: any concentration tested, control V1/2 −19.5 ± 2.8 mV
CYP2B6 = target: T3, CYP2B6 (Homo sapiens, UniProt P20813); test: CYP450 inhibition panel: CYP2B6; format: in vitro ADME; settings: 10 μM; data not shown
T3 sequence (P20813 1-491): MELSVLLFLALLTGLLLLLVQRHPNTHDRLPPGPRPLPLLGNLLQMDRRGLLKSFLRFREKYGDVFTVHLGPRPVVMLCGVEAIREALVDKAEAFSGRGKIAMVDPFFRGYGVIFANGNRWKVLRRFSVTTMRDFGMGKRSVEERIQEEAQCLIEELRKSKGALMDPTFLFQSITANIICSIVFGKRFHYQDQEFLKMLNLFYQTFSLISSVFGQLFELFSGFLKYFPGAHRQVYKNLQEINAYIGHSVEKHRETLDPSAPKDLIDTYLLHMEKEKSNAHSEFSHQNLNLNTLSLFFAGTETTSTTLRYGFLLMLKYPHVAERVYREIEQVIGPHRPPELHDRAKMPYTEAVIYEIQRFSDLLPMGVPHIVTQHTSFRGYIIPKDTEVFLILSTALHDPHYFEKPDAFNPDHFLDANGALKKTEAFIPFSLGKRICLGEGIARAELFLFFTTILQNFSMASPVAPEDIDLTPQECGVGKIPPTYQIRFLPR

CYP2C19 = CYP2C19 (Homo sapiens, UniProt P33261); test: CYP450 inhibition panel: CYP2C19; format: in vitro ADME; settings: 10 μM; data not shown
Sequence of CYP2C19 (P33261 whole entry): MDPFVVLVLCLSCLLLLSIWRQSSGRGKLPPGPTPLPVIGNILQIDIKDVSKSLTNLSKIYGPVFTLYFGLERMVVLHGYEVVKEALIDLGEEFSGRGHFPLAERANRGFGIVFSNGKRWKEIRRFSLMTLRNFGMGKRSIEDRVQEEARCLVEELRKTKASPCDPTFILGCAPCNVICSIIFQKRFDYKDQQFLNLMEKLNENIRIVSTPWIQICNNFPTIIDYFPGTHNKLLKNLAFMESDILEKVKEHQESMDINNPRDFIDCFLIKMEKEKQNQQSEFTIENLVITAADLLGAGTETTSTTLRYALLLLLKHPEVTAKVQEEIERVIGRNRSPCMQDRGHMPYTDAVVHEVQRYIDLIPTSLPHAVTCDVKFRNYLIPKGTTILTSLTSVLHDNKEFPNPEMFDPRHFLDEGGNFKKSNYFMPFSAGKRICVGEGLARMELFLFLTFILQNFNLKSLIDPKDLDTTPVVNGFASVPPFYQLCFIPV

CYP2D6 = CYP2D6 (Homo sapiens, UniProt P10635); test: CYP450 inhibition panel: CYP2D6; format: in vitro ADME; settings: 10 μM; data not shown
Sequence of CYP2D6 (P10635 whole entry): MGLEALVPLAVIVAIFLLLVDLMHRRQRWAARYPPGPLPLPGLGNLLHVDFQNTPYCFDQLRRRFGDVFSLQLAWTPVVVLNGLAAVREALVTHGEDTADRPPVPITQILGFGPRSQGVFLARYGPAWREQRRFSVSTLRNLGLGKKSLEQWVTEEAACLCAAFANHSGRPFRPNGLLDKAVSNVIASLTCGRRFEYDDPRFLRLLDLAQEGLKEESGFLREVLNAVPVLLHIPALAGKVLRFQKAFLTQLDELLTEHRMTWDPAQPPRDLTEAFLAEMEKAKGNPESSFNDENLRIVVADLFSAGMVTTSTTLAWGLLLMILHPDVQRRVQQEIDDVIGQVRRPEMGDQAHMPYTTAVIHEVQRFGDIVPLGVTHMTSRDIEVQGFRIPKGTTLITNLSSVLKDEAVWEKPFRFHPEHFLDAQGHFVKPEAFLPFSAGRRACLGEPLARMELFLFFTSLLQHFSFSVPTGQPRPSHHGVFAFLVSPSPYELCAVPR

hERG K+ channel = hERG K+ channel (Homo sapiens, UniProt Q12809); test: hERG K+ channel activity; format: cell-based; settings: 30 μM; Patch Express; data not shown
Sequence of hERG K+ channel (Q12809 whole entry): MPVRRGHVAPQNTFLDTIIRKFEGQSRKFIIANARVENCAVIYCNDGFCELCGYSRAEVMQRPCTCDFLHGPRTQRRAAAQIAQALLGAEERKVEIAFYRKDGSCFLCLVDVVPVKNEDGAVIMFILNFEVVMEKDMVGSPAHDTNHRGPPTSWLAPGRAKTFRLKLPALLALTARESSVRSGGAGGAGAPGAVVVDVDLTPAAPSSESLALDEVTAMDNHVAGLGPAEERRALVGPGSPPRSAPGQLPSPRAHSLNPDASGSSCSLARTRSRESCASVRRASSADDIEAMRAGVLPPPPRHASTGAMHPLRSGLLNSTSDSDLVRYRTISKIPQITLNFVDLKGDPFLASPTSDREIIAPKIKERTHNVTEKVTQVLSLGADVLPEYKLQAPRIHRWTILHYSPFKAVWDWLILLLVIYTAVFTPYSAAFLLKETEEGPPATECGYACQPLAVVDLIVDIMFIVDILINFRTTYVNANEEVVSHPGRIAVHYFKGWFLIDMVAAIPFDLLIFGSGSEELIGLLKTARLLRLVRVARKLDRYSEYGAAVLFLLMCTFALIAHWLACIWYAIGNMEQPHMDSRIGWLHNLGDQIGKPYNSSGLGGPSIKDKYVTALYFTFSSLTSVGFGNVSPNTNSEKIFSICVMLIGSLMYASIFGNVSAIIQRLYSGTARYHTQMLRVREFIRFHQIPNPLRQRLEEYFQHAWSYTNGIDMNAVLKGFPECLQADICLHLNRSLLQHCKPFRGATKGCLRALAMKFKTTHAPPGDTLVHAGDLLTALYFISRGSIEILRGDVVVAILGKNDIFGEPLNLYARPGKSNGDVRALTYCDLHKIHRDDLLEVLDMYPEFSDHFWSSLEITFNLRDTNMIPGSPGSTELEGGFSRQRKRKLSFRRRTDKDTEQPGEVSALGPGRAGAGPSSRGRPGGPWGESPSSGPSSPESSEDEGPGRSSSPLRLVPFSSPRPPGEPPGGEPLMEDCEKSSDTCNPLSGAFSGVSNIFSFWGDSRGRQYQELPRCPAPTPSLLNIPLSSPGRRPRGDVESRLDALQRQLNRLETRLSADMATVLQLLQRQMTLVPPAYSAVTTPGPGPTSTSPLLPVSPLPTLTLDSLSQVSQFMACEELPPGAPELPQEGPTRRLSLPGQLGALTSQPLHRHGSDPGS

CYP2C8 = target: T4, CYP2C8 (Homo sapiens, UniProt P10632); test: CYP450 inhibition panel: CYP2C8; format: in vitro ADME; settings: 10 μM; data not shown
T4 sequence (P10632 1-490): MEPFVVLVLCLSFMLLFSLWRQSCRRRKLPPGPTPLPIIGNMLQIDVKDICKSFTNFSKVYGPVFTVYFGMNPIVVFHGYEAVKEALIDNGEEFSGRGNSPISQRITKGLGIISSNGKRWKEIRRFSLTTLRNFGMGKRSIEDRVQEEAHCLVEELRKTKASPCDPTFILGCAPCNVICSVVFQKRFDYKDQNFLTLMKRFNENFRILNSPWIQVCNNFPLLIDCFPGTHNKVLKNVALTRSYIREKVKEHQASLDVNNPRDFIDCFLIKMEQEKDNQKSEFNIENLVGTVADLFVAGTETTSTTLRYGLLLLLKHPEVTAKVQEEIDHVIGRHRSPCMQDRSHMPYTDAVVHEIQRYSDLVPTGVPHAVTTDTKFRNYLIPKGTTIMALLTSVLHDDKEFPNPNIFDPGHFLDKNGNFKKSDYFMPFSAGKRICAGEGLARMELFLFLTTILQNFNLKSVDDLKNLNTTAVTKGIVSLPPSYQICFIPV

CYP3A4/5 = test: CYP450 inhibition panel: CYP3A4/5; format: in vitro ADME, human; settings: 10 μM; data not shown
[10] = tested on: maximal electroshock seizure; settings: mice, ip; 95% CI in parentheses; cited from earlier work
[11] = tested on: maximal electroshock seizure; settings: rat, ip; 95% CI in parentheses; cited from earlier work

T1 sequence (Q62205 whole entry): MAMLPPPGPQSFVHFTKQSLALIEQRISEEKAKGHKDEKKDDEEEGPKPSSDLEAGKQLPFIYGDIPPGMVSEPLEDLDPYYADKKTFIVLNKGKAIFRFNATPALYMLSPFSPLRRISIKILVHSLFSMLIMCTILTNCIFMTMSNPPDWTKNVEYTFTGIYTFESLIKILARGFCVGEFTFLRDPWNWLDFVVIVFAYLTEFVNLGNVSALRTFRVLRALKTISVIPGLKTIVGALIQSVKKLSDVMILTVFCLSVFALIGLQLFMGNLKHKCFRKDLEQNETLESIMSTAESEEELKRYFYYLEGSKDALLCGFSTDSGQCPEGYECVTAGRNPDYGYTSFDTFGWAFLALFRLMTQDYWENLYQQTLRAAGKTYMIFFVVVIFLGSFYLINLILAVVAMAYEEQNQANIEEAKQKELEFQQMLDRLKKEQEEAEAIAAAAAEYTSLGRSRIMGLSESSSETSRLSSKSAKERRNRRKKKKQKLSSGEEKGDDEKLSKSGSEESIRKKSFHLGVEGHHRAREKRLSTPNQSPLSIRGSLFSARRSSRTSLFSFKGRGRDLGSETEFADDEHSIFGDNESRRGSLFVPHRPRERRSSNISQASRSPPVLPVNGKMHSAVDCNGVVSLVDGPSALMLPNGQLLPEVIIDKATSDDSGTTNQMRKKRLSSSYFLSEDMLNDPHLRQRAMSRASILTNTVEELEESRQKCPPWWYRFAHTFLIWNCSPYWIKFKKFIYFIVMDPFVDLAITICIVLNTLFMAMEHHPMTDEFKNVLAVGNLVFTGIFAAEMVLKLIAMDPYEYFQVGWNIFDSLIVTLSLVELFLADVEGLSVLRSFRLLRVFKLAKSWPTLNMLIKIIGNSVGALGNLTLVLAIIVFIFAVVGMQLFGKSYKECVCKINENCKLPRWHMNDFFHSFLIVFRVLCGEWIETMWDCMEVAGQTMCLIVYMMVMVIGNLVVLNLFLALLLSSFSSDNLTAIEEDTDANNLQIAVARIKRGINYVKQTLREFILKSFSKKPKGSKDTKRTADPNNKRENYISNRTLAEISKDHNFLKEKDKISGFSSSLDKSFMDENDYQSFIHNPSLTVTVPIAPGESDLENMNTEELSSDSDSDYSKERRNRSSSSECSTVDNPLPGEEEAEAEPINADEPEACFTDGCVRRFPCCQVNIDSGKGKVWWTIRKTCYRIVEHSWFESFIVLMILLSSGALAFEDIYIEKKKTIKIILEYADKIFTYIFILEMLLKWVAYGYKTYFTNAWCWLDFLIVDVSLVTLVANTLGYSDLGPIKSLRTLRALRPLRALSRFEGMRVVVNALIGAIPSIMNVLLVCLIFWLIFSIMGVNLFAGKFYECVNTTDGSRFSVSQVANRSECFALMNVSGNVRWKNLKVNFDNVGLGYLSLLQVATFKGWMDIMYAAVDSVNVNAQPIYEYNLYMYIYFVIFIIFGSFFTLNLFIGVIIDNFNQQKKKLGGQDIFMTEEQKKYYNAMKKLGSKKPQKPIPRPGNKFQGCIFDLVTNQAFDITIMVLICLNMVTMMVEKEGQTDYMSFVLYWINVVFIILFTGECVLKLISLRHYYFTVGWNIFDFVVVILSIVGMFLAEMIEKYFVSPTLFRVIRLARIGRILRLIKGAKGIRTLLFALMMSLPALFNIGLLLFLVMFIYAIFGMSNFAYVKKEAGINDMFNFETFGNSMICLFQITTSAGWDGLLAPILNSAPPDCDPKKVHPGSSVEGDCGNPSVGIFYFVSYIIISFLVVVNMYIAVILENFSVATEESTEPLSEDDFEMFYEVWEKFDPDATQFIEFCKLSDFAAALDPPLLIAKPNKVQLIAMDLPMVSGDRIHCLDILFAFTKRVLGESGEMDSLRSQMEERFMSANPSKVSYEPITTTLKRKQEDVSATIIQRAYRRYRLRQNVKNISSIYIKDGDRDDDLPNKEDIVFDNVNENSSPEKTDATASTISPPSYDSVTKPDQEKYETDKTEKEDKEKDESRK

SMILES: COC[C@@H](NC(C)=O)C(=O)NCc1ccccc1 [(R)-1, (R)-N-benzyl 2-N-acetamido-3-methoxypropionamide]
- scMet seizure model: activity [1]: no activity
- pIC50 [2]: 4.07
- Tox TD50 (behavioral toxicity) (behavioral toxicity): >500 [0.5] mg/kg

SMILES: COC[C@@H](NC(C)=O)C(=O)NCc1ccc(Oc2ccccc2)cc1 [(R)-3, (R)-N-4′-Phenoxybenzyl 2-N-Acetamido-3-methoxypropionamide]
- TD50 at 0.5 h [3]: 30 to 100 mg/kg
- ED50 [4]: 10 to 30 mg/kg
- ED50 [5]: 10 to 30 mg/kg

SMILES: COC[C@@H](NC(C)=O)C(=O)NCc1ccc(Oc2cccc(F)c2)cc1 [(R)-4]
- 6 Hz ED50 [6]: ~10 [0.25–0.5] mg/kg
- MES ED50 [7]: <10 [0.25–4.0] mg/kg
- Tox TD50 (behavioral toxicity) (behavioral toxicity): >10 [0.25–4.0] mg/kg

SMILES: COC[C@@H](NC(C)=O)C(=O)NCc1ccc(Oc2cccc(Cl)c2)cc1 [(R)-5, (R)-N-4′-((3″-Chloro)phenoxy)benzyl 2-N-Acetamido-3-methoxypropionamide]
- Effect on transition of VGSCs to the slow-inactivated state [8]: facilitated the transition of a majority of sodium channels into the slow-inactivated state

SMILES: COC[C@@H](NC(C)=O)C(=O)NCc1ccc(Oc2cccc(C(F)(F)F)c2)cc1 [(R)-7, (R)-N-4′-((3″-Trifluoromethyl)phenoxy)benzyl2-N-Acetamido-3-methoxypropionamide]
- ED50 [4]: 10 to 100 mg/kg

SMILES: COC[C@@H](NC(C)=O)C(=O)NCc1ccc(Oc2cccc(OC)c2)cc1 [(R)-8, (R)-N-4′-((3″-Methoxy)phenoxy)benzyl 2-N-Acetamido-3-methoxypropionamide]
- ED50 [4]: 30 to 100 mg/kg

SMILES: COC[C@@H](NC(C)=O)C(=O)NCc1ccc(Oc2cccc(OC(F)(F)F)c2)cc1 [(R)-9, (R)-N-4′-((3″-Trifluoromethoxy)phenoxy)benzyl2-N-Acetamido-3-methoxypropionamide]
- Direct inhibition of CYP2C9 (CYP2C9): little or no direct inhibition
- Direct inhibition of CYP1A2 (CYP1A2): little or no direct inhibition
- Steady-state activation properties vs control [9]: no different
- Direct inhibition of CYP2B6 (CYP2B6): little or no direct inhibition
- Direct inhibition of CYP2C19 (CYP2C19): little or no direct inhibition
- Direct inhibition of CYP2D6 (CYP2D6): little or no direct inhibition
- Effect on hERG K+ channel activity (hERG K+ channel): did not affect
- Direct inhibition of CYP2C8 (CYP2C8): little or no direct inhibition
- Direct inhibition of CYP3A4/5 (CYP3A4/5): little or no direct inhibition

SMILES: C[C@H](NCc1ccc(OCc2cccc(F)c2)cc1)C(N)=O [(S)-2, (S)-2-(4′-((3″-fluoro)benzyloxy)benzyl)aminopropionamide]
- MES ED50 [10]: 4.1 (3.0–5.5) mg/kg
- MES ED50 ([7]; 95% CI in parentheses): 12 (10–14) mg/kg
- pIC50 [2]: 4.89

SMILES: O=C1NC(=O)C(c2ccccc2)(c2ccccc2)N1 [phenytoin]
- MES ED50 ([7]; 95% CI in parentheses): 28 (21–35) mg/kg
- MES ED50 [11]: 2.4 (1.4–3.7) mg/kg
